In PMC4409382, “Structural Analysis of the 14-3-3ζ/Chibby Interaction Involved in Wnt/β-Catenin Signaling” (PLoS ONE, 2015):
Square brackets hold non-standard residues; d marks the D form. Ends that are not written are not given here. Peptide text beside a SMILES is read from it. pS = N[C@@H](COP(=O)(O)O)C(=O)O

T1: 14-3-3ζ (Homo sapiens, UniProt P63104)
T1 construct: Both full-length 14-3-3ζ and 14-3-3ζΔC12 were expressed as N-terminally His-tagged protein; His tag (TEV-cleavable) (N, cleaved yes); made in house; host or cells: Escherichia coli BL21 (DE3) pLysS
T1 sequence (P63104 1-245): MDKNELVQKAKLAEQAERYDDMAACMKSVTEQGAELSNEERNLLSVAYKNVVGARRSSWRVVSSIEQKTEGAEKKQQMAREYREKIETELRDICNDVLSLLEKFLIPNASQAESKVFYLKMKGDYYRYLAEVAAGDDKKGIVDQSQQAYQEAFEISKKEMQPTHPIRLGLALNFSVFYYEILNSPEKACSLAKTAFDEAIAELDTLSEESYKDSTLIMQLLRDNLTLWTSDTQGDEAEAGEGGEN

T2: 14-3-3ζ (human, full-length) (human, UniProt P63104 1-245)
T2 construct: N-terminal glycine retained after TEV cleavage of the His tag; 14-3-3ζ, human, ORF bought from GeneCopoeia, in Gateway pDEST17; full-length; Dimer in the crystal; the ITC stoichiometry counts on the 14-3-3 monomer; also called WT 14-3-3ζ; source: E. coli BL21 (DE3) pLysS, purified (Ni Sepharose, TEV cleavage, second Ni Sepharose pass); not shown: His tag, N-terminal, cleaved
T2 sequence: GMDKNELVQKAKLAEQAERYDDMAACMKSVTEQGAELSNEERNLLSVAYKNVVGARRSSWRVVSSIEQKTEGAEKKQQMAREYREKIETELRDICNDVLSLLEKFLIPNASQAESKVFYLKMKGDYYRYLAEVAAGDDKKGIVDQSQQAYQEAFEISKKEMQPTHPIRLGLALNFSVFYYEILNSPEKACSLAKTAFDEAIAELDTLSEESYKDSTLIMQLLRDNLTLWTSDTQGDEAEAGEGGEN


How the values were obtained:
[1] = target: T1, 14-3-3ζ; assay: ITC of Cby peptides titrated into 14-3-3ζ; type: binding; conditions: for n (binding stoichiometry of monomeric 14-3-3 and Cby peptide): 25°C; for T∆S / ∆G / ∆H / TΔS / ΔG / ΔH: 298.15 K; for T∆S / ∆G / ∆H: duplicate set (S1 Table); for TΔS / ΔG / ΔH: pH 6.8, Table 1 set of duplicate experiments
Source text: The human14-3-3ζ ORF purchased from GeneCopoeia was transferred into Gateway pDEST17 vector (Invitrogen). The 14-3-3ζΔC12, where the 12 C-terminal residues were deleted, was then generated from the full-length construct using QuikChange II Site-Directed Mutagenesis Kit (Strategene). Both full-length 14-3-3ζ and 14-3-3ζΔC12 were expressed as N-terminally His-tagged protein in Escherichia coli (E. coli) BL21 (DE3) pLysS in M9 medium. For unlabeled protein, protein expression was induced at an O.D.600 of 0.9 by adding 0.75 mM IPTG at 18°C for 24 h. The ^15N, ^13C, ^2H labeled 14-3-3ζΔC12 was produced by growing E. coli in deuterated M9 medium. Cells adapted to 70% D2O were used to inoculate a 1 L culture of M9 prepared in 100% D2O. Cells were grown at 37°C and overexpression was induced at an O.D.600 of 0.6 with 0.75 mM IPTG. After a 60-h induction at 18°C, the cells were harvested. All 14-3-3ζ constructs used in this study were purified from the crude lysate by affinity chromatography using Ni Sepharose Fast Flow beads (Amersham Biosciences). The tag was then cleaved by overnight incubation with His-tagged tobacco etch virus (TEV) protease at 25°C. The cleaved 14-3-3ζ, which retains an N-terminal glycine, was purified by passing the mixture through Ni Sepharose Fast Flow beads. The final yields for the 14-3-3ζ proteins were ~50 mg per L of M9 media (including deuterated media).
The Cby peptides used in this study were purchased from GenScript USA Inc. and the TUFTS University Core Facility. From GenScript USA Inc.: Cby 13-mer (NH2-^12KTPPRKSASLSNL^24-COOH), Cby S20D 13-mer (NH2-^12KTPPRKSADLSNL^24-COOH), Cby S20E 13-mer (NH2-^12KTPPRKSAELSNL^24-COOH), pCby 13-mer (NH2-^12KTPPRKSApSLSNL^24-COOH) and pCby 18-mer ((NH2-^12KTPPRKSApSLSNLHSLDR^29-COOH). From TUFTS: pCby 7-mer (Ac-^16RKSApSLS^22-NH2), pCby 11-mer (NH2-^12KTPPRKSApSLS^22-NH2), pCby S22P 7-mer (Ac-^16RKSApSLP^22-NH2), pCby S22P 13-mer (NH2-^12KTPPRKSApSLPNL^24-COOH) and pCby S22P 18-mer ([…]). Peptides were dissolved and dialyzed in 50 mM sodium phosphate, 100 mM NaCl at pH 6.8 for ITC and NMR experiments.
ITC experiments were performed on a VP-ITC instrument (MicroCal) at 25°C. The protein and peptide samples were dialyzed into a buffer containing 50 mM sodium phosphate, 100 mM NaCl, 1 mM DTT at pH 6.8 and degassed before the experiments. In a typical experiment, 5 μL aliquots of ~1–2 mM peptide were titrated stepwise into the 1.4 mL sample cell containing ~100–200 μM 14-3-3ζ. The association constant (Ka), molar binding stoichiometry (n) and the binding enthalpy (ΔH), entropy (ΔS) and Gibbs free energy (ΔG) were determined by fitting the binding isotherm to a one-site model with MicroCal Origin7 software. All ITC experiments were performed in duplicate. A duplicate set of thermodynamic derived binding parameters are found in S1 Table. Peptide and protein concentrations were determined from amino acid analysis (Amino Acid Analysis Facility, SickKids, Toronto, ON).

[2] = target: T2, 14-3-3ζ (human, full-length); assay: ITC; VP-ITC, 25°C; ~1-2 mM peptide titrated in 5 uL aliquots into ~100-200 uM 14-3-3ζ in the cell; 50 mM sodium phosphate, 100 mM NaCl, 1 mM DTT, pH 6.8; one-site model; in duplicate; conditions: both partners purified
[3] = 50 mM sodium phosphate, 100 mM NaCl, 1 mM DTT, pH 6.8, one-site model, Table 1 set of duplicate experiments
[4] = pH 6.8, duplicate set (S1 Table)

| n (binding stoichiometry of monomeric 14-3-3 and Cby peptide) [1, 3] | n (binding stoichiometry of monomeric 14-3-3 and Cby peptide) [1, 4] | T∆S [1] [kcal/mol] | ∆G [1] [kcal/mol] | ∆H [1] [kcal/mol] | TΔS [1] [kcal/mol] | ΔG [1] [kcal/mol] | ΔH [1] [kcal/mol] | greater affinity compared to the Cby 7-mer (fold, in words) [1] | Kd ([1]; 25°C (298.15 K), 50 mM sodium phosphate, 100 mM NaCl, 1 mM DTT, pH 6.8, one-site model, Table 1 set of duplicate experiments) [µM] | Kd [2] [µM] | dH [2] [kcal/mol] | stoichiometry N [2] | Molecule |
| --- | --- | --- | --- | --- | --- | --- | --- | --- | --- | --- | --- | --- | --- |
| 1.03 | 1.02 | 1.29 | -7.50 ± 0.02 | -6.21 ± 0.02 | 1.39 | -7.55 ± 0.01 | -6.16 ± 0.01 | – | – | – | – | – | CC(=O)N[C@@H](CCCNC(=N)N)C(=O)N[C@@H](CCCCN)C(=O)N[C@@H](CO)C(=O)N[C@@H](C)C(=O)N[C@@H](COP(=O)(O)O)C(=O)N[C@@H](CC(C)C)C(=O)N1CCC[C@H]1C(N)=O [Cby 7-mer S22P] (Ac-RKSA[pS]LP-NH2) |
| 1.01 | 0.94 | 2.20 | -5.90 ± 0.02 | -3.70 ± 0.04 | 2.60 | -5.95 ± 0.03 | -3.35 ± 0.06 | – | – | – | – | – | CC(=O)N[C@@H](CCCNC(=N)N)C(=O)N[C@@H](CCCCN)C(=O)N[C@@H](CO)C(=O)N[C@@H](C)C(=O)N[C@@H](COP(=O)(O)O)C(=O)N[C@@H](CC(C)C)C(=O)N[C@@H](CO)C(N)=O [Cby 7-mer] (Ac-RKSA[pS]LS-NH2) |
| 1.06 | 1.02 | 3.33 | -8.03 ± 0.02 | -4.70 ± 0.01 | 3.49 | -8.13 ± 0.02 | -4.64 ± 0.01 | – | – | – | – | – | CC(C)C[C@H](NC(=O)[C@H](CC(N)=O)NC(=O)[C@@H]1CCCN1C(=O)[C@H](CC(C)C)NC(=O)[C@H](COP(=O)(O)O)NC(=O)[C@H](C)NC(=O)[C@H](CO)NC(=O)[C@H](CCCCN)NC(=O)[C@H](CCCNC(=N)N)NC(=O)[C@@H]1CCCN1C(=O)[C@@H]1CCCN1C(=O)[C@@H](NC(=O)[C@@H](N)CCCCN)[C@@H](C)O)C(=O)O [Cby 13-mer S22P] (H-KTPPRKSA[pS]LPNL-OH) |
| 0.95 | 0.96 | 3.22 | -6.49 ± 0.02 | -3.27 ± 0.02 | 3.23 | -6.49 ± 0.02 | -3.26 ± 0.02 | more than two-fold | 17.5 ± 0.6 | – | – | – | CC(C)C[C@H](NC(=O)[C@H](COP(=O)(O)O)NC(=O)[C@H](C)NC(=O)[C@H](CO)NC(=O)[C@H](CCCCN)NC(=O)[C@H](CCCNC(=N)N)NC(=O)[C@@H]1CCCN1C(=O)[C@@H]1CCCN1C(=O)[C@@H](NC(=O)[C@@H](N)CCCCN)[C@@H](C)O)C(=O)N[C@@H](CO)C(N)=O [Cby 11-mer] (H-KTPPRKSA[pS]LS-NH2) |
| – | – | – | – | – | – | – | – | – | – | 17.5 | -3.26 ± 0.02 | 0.95 | KTPPRKSA[pS]LS-NH2 (N-terminus assumed; SMILES CC(C)C[C@H](NC(=O)[C@H](COP(=O)(O)O)NC(=O)[C@H](C)NC(=O)[C@H](CO)NC(=O)[C@H](CCCCN)NC(=O)[C@H](CCCNC(=N)N)NC(=O)[C@@H]1CCCN1C(=O)[C@@H]1CCCN1C(=O)[C@@H](NC(=O)[C@@H](N)CCCCN)[C@@H](C)O)C(=O)N[C@@H](CO)C(N)=O, Chibby (Cby), human, residues 12-22; free NH2 end; source: synthetic peptide, bought: TUFTS University Core Facility) [pCby 11-mer] |
| – | – | – | – | – | – | – | – | – | – | 43.5 | -3.35 ± 0.06 | 1.01 | Ac-RKSA[pS]LS-NH2 (SMILES CC(=O)N[C@@H](CCCNC(=N)N)C(=O)N[C@@H](CCCCN)C(=O)N[C@@H](CO)C(=O)N[C@@H](C)C(=O)N[C@@H](COP(=O)(O)O)C(=O)N[C@@H](CC(C)C)C(=O)N[C@@H](CO)C(N)=O, also called 16RKSA(pS)LS22; pCby WT 7-mer; source: synthetic peptide, bought: TUFTS University Core Facility) [pCby 7-mer] |
| – | – | – | – | – | – | – | – | – | – | 2.9 | -6.16 ± 0.01 | 1.03 | Ac-RKSA[pS]LP-NH2 (SMILES CC(=O)N[C@@H](CCCNC(=N)N)C(=O)N[C@@H](CCCCN)C(=O)N[C@@H](CO)C(=O)N[C@@H](C)C(=O)N[C@@H](COP(=O)(O)O)C(=O)N[C@@H](CC(C)C)C(=O)N1CCC[C@H]1C(N)=O, Chibby (Cby), human, residues 16-22 with S22P; also called Cby 7-mer S22P; 16RKSA(pS)LP22; source: synthetic peptide, bought: TUFTS University Core Facility) [pCby S22P 7-mer] |
| – | – | – | – | – | – | – | – | – | – | 21.3 | -1.56 ± 0.05 | 0.99 | KTPPRKSA[pS]LSNAHSLDR (Chibby (Cby), human, residues 12-29 with L24A; Not in the methods' list of peptides; also called Cby L24A 18-mer; source: synthetic peptide) [Cby 18-mer L24A (phosphorylated)] |
| – | – | – | – | – | – | – | – | – | – | 1.1 | -4.64 ± 0.01 | 1.06 | KTPPRKSA[pS]LPNL (Chibby (Cby), human, residues 12-24 with S22P; free NH2 and COOH ends; also called Cby 13-mer S22P; source: synthetic peptide, bought: TUFTS University Core Facility) [pCby S22P 13-mer] |
